Data reported in patent US20150368617A1, “METHOD FOR FORMING ENDOTHELIAL CELLS” (Korea Advanced Institute of Science and Technology (KAIST), priority 2012, published 2015).
“Also recorded” adds a separate entry of the source.

Experiments:
Format in all cases: cell-based, mouse
[1] = system: CD144+ ECs; experiment: BrdU/7-AAD cell cycle analysis and BrdU incorporation in differentiating Flk1+ MPCs
Description: Apoptosis assay was performed as previously described. To determine the cell cycle, BrdU/7-AAD cell cycle analysis was performed according to the manufacturer's instructions (BD Pharmingen™). Briefly, cells were incubated with BrdU (1 mM) for 1 hr, dissociated with dissociation buffer, and stained with anti-CD144 antibody. The cells were then fixed, permeabilized, and fixed once more, followed by 1 hr incubation with DNase I (200 U) at 37┌ C. After incubation with FITC-conjugated anti-BrdU antibody for 20 min at RT, the cells were stained with 7-AAD. The cells were analyzed by FACS Aria II and the data were analyzed using FlowJo software.

[2] = system: Flk1+ MPCs; experiment: Cell adhesion assay, Flk1+ MPCs; settings: 6 hrs
Description: Sorted Flk1+ MPCs or ICAM2+ ECs were plated onto Matrigel coated plates at a density of 10,000 cells/cm^2. Six hrs after plating, non-adherent cells were removed by washing and the cell number of adherent cells was counted following trypsinization. The percentage of adherent cells was calculated as (counted cell number/initial seeded cell number)×100.

[3] = system: Flk1+ MPCs; experiment: Western blotting of signaling proteins in Flk1+ MPCs
Description: FIGS. 10A-10B. PI3-kinase/Akt signaling and MyPT-MLC signaling are involved in ROCK suppression-induced expansion of ECs. Flk1+ MPCs were incubated with indicated agents for 2 days, and analyses were performed on day 6.5. (FIG. 10A) Immunoblotting for pPTEN, PTEN, pAkt, Akt, pERK, ERK, pMyPT, MyPT, pMLC, MLC, ┌ SMA and GAPDH in Flk1+ MPCs treated with PBS (Control), Y27632 (10┌ M), VEGF-A (50 ng/ml; VA), or VA plus Y27632. The Flk1+ MPCs were cultured for 12 hrs, starved for 6 hrs with or without Y27632, and then treated with VEGF-A (50 ng/ml) for 10 min. Results from four independent trials were similar to each other. (FIG. 10B) Quantitative analyses of phosphorylations of AKT, PTEN, MyPT and MLC. Signal intensities were quantitatively evaluated using Image J software. Intensity of phosphorylated/total form of each protein in Control is regarded as 1 and relative intensities are expressed as fold. The mean of relative values from four independent experiments are represented. *p<0.01 versus Control. ^#p<0.01 versus VEGF-A. N.D represents non-detected.
Cell lysates were separated by SDS-PAGE gel and transferred to PVDF membranes for Western Blot analysis. After blocking with 5% skim milk, the membranes were first incubated with primary antibodies in blocking buffer overnight at 4┌ C, then with HRP-conjugated secondary antibodies for 1 hr at RT. The following primary antibodies were used: anti-RhoA (mouse monoclonal, Cytoskeleton Inc.), anti-ROCK1 (mouse monoclonal, Santa Cruz), anti-ROCK2 (rabbit polyclonal, Santa Cruz), anti-┌-tubulin (mouse monoclonal, Santa Cruz), anti-phospho-PTEN (Ser380/Thr382/383)(clone 44A7, Cell Signaling), anti-PTEN (clone 138G6, Cell Signaling), anti-phospho-Akt (Ser473)(clone 193H12, Cell Signaling), anti-Akt (rabbit polyclonal, Cell Signaling), anti-phospho-ERK (Thr202/Tyr204) (clone 20G11, Cell Signaling), anti-ERK (rabbit monoclonal, Cell Signaling), anti-phospho-MyPT (Thr696) (rabbit polyclonal, Cell Signaling), anti-MyPT (rabbit polyclonal, Cell Signaling), anti-phospho-MLC (Thr18/Ser19) (rabbit polyclonal, Cell Signaling), anti-MLC (rabbit polyclonal, Cell Signaling), anti-┌ SMA (rabbit polyclonal, Novus Biologicals), anti-GAPDH (rabbit polyclonal, Santa Cruz), anti-phospho-VEGFR2 (Tyr1175) (clone 19A10, Cell Signaling), and anti-VEGFR2 (clone 55B11, Cell Signaling). The secondary antibodies used were rabbit anti-mouse IgG-HRP (Santa Cruz) and goat anti-rabbit IgG-HRP (Santa Cruz). Signals were developed with enhanced chemiluminescence HRP substrate (Millipore) and detected using LAS-3000 mini (Fuji film).

[4] = system: ICAM2+ ECs; experiment: Quantitative RT-PCR of EC- and MC-related genes in purified ICAM2+ ECs; settings: VEGF-A plus Y27632 compared to VEGF-A
From the text: Total RNA from purified ICAM-2+ ECs was extracted using Trizol RNA extraction kit (Invitrogen) according to the manufacturer's instructions. 1┌ g of the RNA was reverse transcribed into cDNA using GoScript™ cDNA synthesis system (Promega). Synthesized cDNA was applied for quantitative real-time PCR using FastStart SYBR green Master (Roche) and Bio-Rad S1000 Thermal cycler with the indicated primers (Table I). GAPDH was used as reference gene and the results were presented as relative expression to control using the ddCt method.

[5] = system: VYI-ECs; experiment: Angiogenesis assay using a microfluidic device; settings: 72 hr; co-treatment of Y27632 with VEGF-A
Description: To test the angiogenic property of VYI-ECs, we utilized a microfluidic platform that was modified from the previously described device. Briefly, a poly-dimethylsiloxane (PDMS) based microfluidic platform containing three channels was fabricated with poly-dimethylsiloxane using a soft lithography process. Two empty spaces in between three parallel channels were filled with a mixture of type I collagen (3 mg/ml, rat tail, BD Biosciences) and fibronectin (50 μg/ml, Invitrogen), which together acted as an ECM scaffold. The center channel was coated with fibronectin (10 μg/ml), and was seeded with 40˜50 μl of VYI-EC suspension (1×10^7 cells/ml). The device was tilted vertically for 1 hr to allow the cells to attach onto the sidewall of the scaffold by gravity. The cells were then seeded onto the other sidewall by flipping the device upside down. Cell culture media in the side channels containing VEGF-A (50 ng/ml) or VEGF-A (50 ng/ml) plus Y27632 (10 μM) were exchanged with fresh media every 12 hr. Phase contrast and immunofluorescent images were acquired to analyze the angiogenic sprouting formation of VYI-ECs.

[6] = Y27632 10 μM, VEGF-A 50 ng/ml for 10 min
[7] = regardless of VEGF-A stimulation

C[C@@H](N)[C@H]1CC[C@H](C(=O)Nc2ccncc2)CC1 [Y27632]
increase of BrdU+/CD144+ EC population ([1]; 12 hrs): 1.7 fold | increase of BrdU+/CD144+ EC population ([1]; 36 hrs): 2.7 fold | increase of population of CD144+ ECs in S phase compared to control ([1]; 36 hrs): 1.23 fold | reduction of CD144+ ECs in G0/G1 phase compared to control ([1]; 36 hrs): 12% | adhesion of Flk1+ cells onto the plates compared to control [2]: 1.3 fold | phosphorylation of Akt (Ser473) [3, 6]: phosphorylated | phosphorylation of ERK [3, 6]: but not ERK | phosphorylation of PTEN (Ser380, Thr382 and Thr383) [3, 6]: phosphorylated | phosphorylation of MLC [3, 7]: almost completely reduced; also recorded: inhibits | phosphorylation of MyPT [3, 7]: almost completely reduced | protein levels of αSMA [3, 7]: reduced | calponin mRNA, reduced expression level [4]: 25 fold | claudin-5 mRNA, expressed more [4]: 4.6 fold | dll4 mRNA, expressed more [4]: 2.5 fold | ets1 mRNA, expressed more [4]: 1.4 fold | ets2 mRNA, expressed more [4]: 2.1 fold | notch1 mRNA, expressed more [4]: 1.5 fold | sm22a mRNA, reduced expression level [4]: 25 fold | sma mRNA, reduced expression level [4]: 17 fold | sox17 mRNA, expressed more [4]: 1.7 fold | sox18 mRNA, expressed more [4]: 1.8 fold | vegfr3 mRNA, expressed more [4]: 1.7 fold | increase of length of sprouting CD144+ VYI-ECs [5]: 1.7 fold
